In ChEMBL document CHEMBL3352598, “Synthesis, pharmacological evaluation and molecular modeling studies of triazole containing dopamine D3 receptor ligands” (Bioorg Med Chem Lett, 2015):

Columns and labels:
[1] = target: T1, D(4) dopamine receptor (Homo sapiens, UniProt P21917); assay: Displacement of [125I]-IABN from human D4 receptor expressed in HEK293 cell membranes after 60 mins by filtration binding assay
T1 sequence (P21917 whole entry): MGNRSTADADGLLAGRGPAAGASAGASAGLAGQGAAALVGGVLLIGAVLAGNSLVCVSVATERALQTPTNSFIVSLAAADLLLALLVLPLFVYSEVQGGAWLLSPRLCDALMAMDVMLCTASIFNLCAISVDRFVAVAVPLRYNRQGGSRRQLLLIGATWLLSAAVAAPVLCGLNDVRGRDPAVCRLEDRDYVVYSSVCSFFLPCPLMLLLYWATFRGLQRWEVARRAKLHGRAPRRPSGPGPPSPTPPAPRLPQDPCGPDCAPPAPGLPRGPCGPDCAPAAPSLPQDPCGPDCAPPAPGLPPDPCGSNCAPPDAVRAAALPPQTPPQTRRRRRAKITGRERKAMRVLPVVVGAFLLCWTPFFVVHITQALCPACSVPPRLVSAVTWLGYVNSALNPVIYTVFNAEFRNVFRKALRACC

[2] = target: D(2) dopamine receptor (Homo sapiens, UniProt P14416); assay: biochemical; assay type: cell-based, HEK293
[3] = species: Homo sapiens; assay: Selectivity index, ratio of Ki for D4 receptor to Ki for human D3 receptor
[4] = target: T2, 5-hydroxytryptamine receptor 1A (Homo sapiens, UniProt P08908); assay: Displacement of [3H]8-OH-DPAT from human 5HT1A receptor after 60 mins by filtration binding assay
T2 sequence (P08908 whole entry): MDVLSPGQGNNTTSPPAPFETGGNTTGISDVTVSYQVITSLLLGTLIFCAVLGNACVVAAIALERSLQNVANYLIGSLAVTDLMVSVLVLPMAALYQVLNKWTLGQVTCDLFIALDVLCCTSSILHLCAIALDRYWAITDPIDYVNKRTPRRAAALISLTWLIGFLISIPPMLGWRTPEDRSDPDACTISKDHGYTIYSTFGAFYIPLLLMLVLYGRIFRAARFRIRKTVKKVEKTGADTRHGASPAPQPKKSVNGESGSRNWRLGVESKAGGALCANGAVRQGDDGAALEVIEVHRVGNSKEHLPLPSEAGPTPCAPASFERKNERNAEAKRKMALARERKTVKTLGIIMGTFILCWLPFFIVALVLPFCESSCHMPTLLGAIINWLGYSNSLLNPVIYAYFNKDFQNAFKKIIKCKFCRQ

[5] = target: D(3) dopamine receptor (Homo sapiens, UniProt P35462); assay: biochemical; assay type: cell-based, HEK293
Chain of D(3) dopamine receptor (P35462 whole entry): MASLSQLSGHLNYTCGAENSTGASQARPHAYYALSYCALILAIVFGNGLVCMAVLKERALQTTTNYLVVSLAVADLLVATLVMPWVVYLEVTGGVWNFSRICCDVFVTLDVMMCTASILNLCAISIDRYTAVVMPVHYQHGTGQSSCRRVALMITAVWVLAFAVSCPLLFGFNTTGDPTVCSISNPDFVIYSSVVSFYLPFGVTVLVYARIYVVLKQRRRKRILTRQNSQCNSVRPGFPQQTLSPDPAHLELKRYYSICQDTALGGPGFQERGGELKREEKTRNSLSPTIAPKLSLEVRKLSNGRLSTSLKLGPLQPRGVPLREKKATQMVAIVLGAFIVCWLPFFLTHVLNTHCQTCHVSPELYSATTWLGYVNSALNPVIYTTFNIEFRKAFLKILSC

Chain of D(2) dopamine receptor (P14416 whole entry): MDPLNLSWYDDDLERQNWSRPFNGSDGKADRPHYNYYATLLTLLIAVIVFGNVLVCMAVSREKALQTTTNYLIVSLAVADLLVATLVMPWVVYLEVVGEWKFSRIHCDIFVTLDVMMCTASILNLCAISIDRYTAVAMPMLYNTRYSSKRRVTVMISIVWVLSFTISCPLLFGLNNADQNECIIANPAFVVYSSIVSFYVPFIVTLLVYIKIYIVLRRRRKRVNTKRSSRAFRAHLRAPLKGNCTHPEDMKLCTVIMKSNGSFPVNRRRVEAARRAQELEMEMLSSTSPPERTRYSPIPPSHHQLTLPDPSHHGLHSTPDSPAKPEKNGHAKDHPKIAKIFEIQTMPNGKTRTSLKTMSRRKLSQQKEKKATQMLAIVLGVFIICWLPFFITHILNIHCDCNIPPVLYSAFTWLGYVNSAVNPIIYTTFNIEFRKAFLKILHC

SMILES | Ki [1] [nM] | Ki [2] [nM] | Ratio Ki [3] | Ki [4] [nM] | Ki [5] [nM]
COc1ccccc1N1CCN(CCCCc2cn(-c3ccc(SC)cc3)nn2)CC1 | 200 | 37.7 | 95 | 5.3 | 2.1
COc1ccccc1N1CCN(CCCCCc2cn(-c3cccc4cnccc34)nn2)CC1 | 186 | 17.7 | 103 | 5.8 | 1.8
COc1ccccc1N1CCN(CCCc2cn(-c3ccccc3O)nn2)CC1 | – | 12.8 | – | – | 6.8
COc1ccccc1N1CCN(CCCCCc2cn(-c3ccc(F)cc3)nn2)CC1 | – | 23.7 | – | – | 3.2
COc1ccccc1N1CCN(CCCc2cn(-c3ccccc3OC)nn2)CC1 | – | 272 | – | – | 93.1
COc1ccccc1N1CCN(CCCc2cn(-c3ccc(N(C)C)cc3)nn2)CC1 | – | 162 | – | – | 29.6
COc1ccccc1N1CCN(CCCc2cn(-c3ccccc3)nn2)CC1 | – | 64 | – | – | 22.2
COc1ccccc1N1CCN(CCCc2cn(-c3cccc4cnccc34)nn2)CC1 | – | 79.3 | – | – | 36.3
COc1ccccc1N1CCN(CCCCCc2cn(-c3ccc(-c4ccsc4)cc3)nn2)CC1 | 163 | 109 | 26 | 153 | 6.3
COc1ccccc1N1CCN(CCCCc2cn(-c3cccc4cnccc34)nn2)CC1 | 875 | 42.3 | 237 | 6 | 3.7
COc1ccccc1N1CCN(CCCCCc2cn(-c3ccc(N(C)C)cc3)nn2)CC1 | – | 62.6 | – | – | 6.7
COc1ccccc1N1CCN(CCCCc2cn(-c3ccccc3OC)nn2)CC1 | – | 139 | – | – | 25.4
COc1ccccc1N1CCN(CCCCNC(=O)c2ccc(N(C)C)cc2)CC1 | – | – | 1120 | 7.5 | –
COc1ccccc1N1CCN(CCCc2cn(-c3ccc(SC)cc3)nn2)CC1 | – | 44.1 | – | – | 9.6
COc1ccccc1N1CCN(CCCCc2cn(-c3ccc(N(C)C)cc3)nn2)CC1 | 758 | 171 | 55 | 9.4 | 13.9
COc1ccccc1N1CCN(CCCc2cn(-c3ccc(F)cc3)nn2)CC1 | – | 73.5 | – | – | 26.5
COc1ccccc1N1CCN(CCCCCc2cn(-c3ccccc3)nn2)CC1 | – | 19.4 | – | – | 3.1
COc1ccccc1N1CCN(CCCCCc2cn(-c3ccc(SC)cc3)nn2)CC1 | 227 | 26.6 | 99 | 3.9 | 2.3
COc1ccccc1N1CCN(CCCCc2cn(-c3ccc(-c4ccsc4)cc3)nn2)CC1 | 395 | 94.3 | 48 | 1.3 | 8.2
COc1ccccc1N1CCN(CCCCc2cn(-c3ccccc3O)nn2)CC1 | – | 9.4 | – | – | 2.9
COc1ccccc1N1CCN(CCCc2cn(-c3ccc(-c4ccsc4)cc3)nn2)CC1 | 90 | 158 | 10 | 7.4 | 8.9
COc1ccccc1N1CCN(CCCCCc2cn(-c3ccccc3OC)nn2)CC1 | – | 62.7 | – | – | 21.1
COc1ccccc1N1CCN(CCCCc2cn(-c3ccccc3)nn2)CC1 | – | 30.9 | – | – | 4.7
COc1ccccc1N1CCN(CCCCc2cn(-c3ccc(F)cc3)nn2)CC1 | – | 46.7 | – | – | 6.5
